In paper PMC4383205, “Structure of a low-population intermediate state in the release of an enzyme product” (eLife, 2015):

Target: T1, human lysozyme (Homo sapiens, UniProt P61626)
T1 construct: gene LYZ; wild type, expressed in Pichia pastoris (residues 1 to 130)
T1 sequence (P61626 19-148): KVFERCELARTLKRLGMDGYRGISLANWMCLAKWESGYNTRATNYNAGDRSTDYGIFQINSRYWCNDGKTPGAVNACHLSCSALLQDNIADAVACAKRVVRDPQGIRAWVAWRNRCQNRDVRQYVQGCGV
Experiment: SPR (Biacore single chain kinetics); also 1H-15N HSQC NMR titration and RDCs of the bound state
Type: binding

Kd: ~9 µM
Structure (SMILES): CC(=O)N[C@H]1[C@H](O[C@H]2[C@H](O)[C@@H](NC(C)=O)C(O)O[C@@H]2CO)O[C@H](CO)[C@@H](O[C@@H]2O[C@H](CO)[C@@H](O)[C@H](O)[C@H]2NC(C)=O)[C@@H]1O (stereo partly shown) [triNAG, N,N′,N′′-Triacetylchitotriose]
